The values below come from ChEMBL document CHEMBL1128086, “Serine protease selectivity of the thrombin inhibitor D-Phe-Pro-Agmatine and its homologs” (Bioorg Med Chem Lett, 1995).

The nature of experiment [1]: Selectivity ratio of thrombin Kass to ntPA Kass.
Experiment [2] has as its target Serine protease 1 (Homo sapiens) (UniProt P07477). Briefly: In vitro inhibitory potency against trypsin.
Experiment [3] deals with Prothrombin (Homo sapiens) (UniProt P00734). As to the kind of experiment: In vitro inhibitory potency against human alpha-thrombin.
Experiment [4] addresses Plasminogen (Homo sapiens) (UniProt P00747). As to the kind of experiment: In vitro inhibitory potency against plasmin.
Experiment [5] has as its target Urokinase-type plasminogen activator (Homo sapiens) (UniProt P00749). As to the kind of experiment: In vitro inhibitory potency against Urokinase-type plasminogen activator in human.
Experiment [6] in a line: Selectivity ratio of thrombin Kass to plasmin Kass.
Experiment [7] has as its target Tissue-type plasminogen activator (Homo sapiens) (UniProt P00750). As to the kind of experiment: In vitro inhibitory potency against n-tissue plasminogen activator in human.
In experiment [8] the target is Thrombin & trypsin (Homo sapiens) (UniProt P00734+P07477+P07478+P35030). As to the kind of experiment: Selectivity ratio of thrombin Kass to trypsin Kass. It counts as protein assay.
Experiment [9] addresses Thrombin and urokinase-type plasminogen activator (Homo sapiens) (UniProt P00734+P00749). As to the kind of experiment: Selectivity ratio of thrombin Kass to Urokinase Kass. It counts as protein assay.
Experiment [10] has as its target Tissue-type plasminogen activator (Homo sapiens) (UniProt P00750). As to the kind of experiment: In vitro inhibitory potency against n-tissue plasminogen activator in humans; no enzyme inhibition was observed at an inhibitor concentration of 200 uM.
Experiment [11] addresses Urokinase-type plasminogen activator (Homo sapiens) (UniProt P00749). As to the kind of experiment: In vitro inhibitory potency against Urokinase-type plasminogen activator in human; no enzyme inhibition was observed at an inhibitor concentration of 200 uM.
In experiment [12] the target is Plasminogen (Homo sapiens) (UniProt P00747). Briefly: In vitro inhibitory potency against plasmin; no enzyme inhibition was observed at an inhibitor concentration of 200 uM.
For experiment [13], the target named is Tissue-type plasminogen activator (Homo sapiens) (UniProt P00750). As to the kind of experiment: In vitro inhibitory potency against n-tissue plasminogen activator in human; no enzyme inhibition was observed at an inhibitor concentration of 200 uM.
Tissue-type plasminogen activator (Homo sapiens), sequence (P00750 36-562 limits assumed): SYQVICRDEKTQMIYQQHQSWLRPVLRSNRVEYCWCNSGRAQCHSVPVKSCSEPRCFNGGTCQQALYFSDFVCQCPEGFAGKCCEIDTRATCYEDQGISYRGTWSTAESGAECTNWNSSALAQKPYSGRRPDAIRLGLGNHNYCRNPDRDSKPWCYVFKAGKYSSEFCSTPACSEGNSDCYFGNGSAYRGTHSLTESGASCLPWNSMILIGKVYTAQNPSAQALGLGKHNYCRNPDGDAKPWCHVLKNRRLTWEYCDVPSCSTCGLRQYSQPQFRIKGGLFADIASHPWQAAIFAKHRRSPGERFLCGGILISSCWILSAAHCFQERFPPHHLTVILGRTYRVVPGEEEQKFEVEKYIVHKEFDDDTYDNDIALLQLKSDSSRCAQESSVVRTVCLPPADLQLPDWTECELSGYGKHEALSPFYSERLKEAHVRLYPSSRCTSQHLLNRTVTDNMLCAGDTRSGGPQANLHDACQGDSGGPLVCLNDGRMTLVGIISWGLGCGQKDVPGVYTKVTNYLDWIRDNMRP

Serine protease 1 (Homo sapiens), sequence (P07477 whole entry): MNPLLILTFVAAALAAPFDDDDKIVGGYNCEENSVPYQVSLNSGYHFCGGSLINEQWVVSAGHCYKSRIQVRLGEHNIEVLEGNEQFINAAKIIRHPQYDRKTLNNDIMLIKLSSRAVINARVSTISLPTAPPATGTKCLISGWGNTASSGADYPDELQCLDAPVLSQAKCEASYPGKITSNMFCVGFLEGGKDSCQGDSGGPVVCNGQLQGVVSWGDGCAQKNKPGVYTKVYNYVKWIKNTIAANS
Plasminogen (Homo sapiens), sequence (P00747 97-580 limits assumed): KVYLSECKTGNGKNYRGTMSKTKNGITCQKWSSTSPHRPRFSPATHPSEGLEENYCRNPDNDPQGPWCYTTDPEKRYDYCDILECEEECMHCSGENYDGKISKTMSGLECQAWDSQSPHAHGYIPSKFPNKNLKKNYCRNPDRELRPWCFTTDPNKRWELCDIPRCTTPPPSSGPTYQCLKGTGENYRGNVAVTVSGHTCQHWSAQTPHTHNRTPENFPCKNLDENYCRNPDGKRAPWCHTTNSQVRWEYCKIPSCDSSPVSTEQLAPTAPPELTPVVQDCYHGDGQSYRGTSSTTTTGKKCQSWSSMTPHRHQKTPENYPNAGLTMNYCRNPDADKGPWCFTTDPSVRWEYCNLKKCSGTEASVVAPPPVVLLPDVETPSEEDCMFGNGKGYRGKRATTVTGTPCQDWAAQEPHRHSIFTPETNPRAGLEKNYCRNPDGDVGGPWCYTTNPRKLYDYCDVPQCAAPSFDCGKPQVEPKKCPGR
Plasminogen (Homo sapiens), sequence (P00747 581-810 limits assumed): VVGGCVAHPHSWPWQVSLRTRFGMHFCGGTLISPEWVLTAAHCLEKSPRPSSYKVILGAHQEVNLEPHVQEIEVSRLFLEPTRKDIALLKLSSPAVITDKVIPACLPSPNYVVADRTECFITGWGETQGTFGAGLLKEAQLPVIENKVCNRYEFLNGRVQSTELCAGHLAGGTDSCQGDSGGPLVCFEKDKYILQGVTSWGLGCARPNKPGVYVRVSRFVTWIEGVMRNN

For the compound `CN[C@H](Cc1ccccc1)C(=O)N1CCC[C@H]1C(=O)N[C@H](C=O)CCCNC(=N)N`, the Ratio in [1] is 8500; in [6] it was 260; in experiment [8] it was 5.2; in experiment [9] it was 14000. In addition, the K ass is 8.8e+07 l M-1 in experiment [2]; 4.6e+08 l M-1 in [3]; 1.8e+06 l M-1 in experiment [4]; 32000 l M-1 in [5]; 50000 l M-1 in experiment [7].
For the compound `NC(N)=NCCCCCNC(=O)[C@@H]1CCCN1C(=O)[C@H](N)Cc1ccccc1`, the Ratio is above 5200 in experiment [1], above 5200 in [6], 480 in experiment [8] and above 5200 in [9]. The K ass in experiment [2] is 2700 l M-1; in experiment [10], < 250 l M-1; in experiment [3], 1.3e+06 l M-1; in [11], < 250 l M-1; in experiment [12], < 250 l M-1.
For `NC(N)=NCCCCNC(=O)C1CCCN1C(=O)[C@H](N)Cc1ccccc1` (some centres undefined), the Ratio in [1] was found to be 920; in experiment [6], 4600; in experiment [8] it was 33; in experiment [9] it was 31000. In addition, the K ass in [2] was 170000 l M-1; in experiment [3], 5.5e+06 l M-1; in [4], 1200 l M-1; in [5], 180 l M-1; in [7], 6000 l M-1.
On to `NC(N)=NCCC[C@@H](C=O)NC(=O)[C@@H]1CCCN1C(=O)[C@H](N)Cc1ccccc1`, for which the Ratio stood at 1800 in experiment [1], 390 in experiment [6], 5.1 in [8] and 13000 in experiment [9]. The K ass in [2] was 1.1e+08 l M-1; in experiment [3] it was 5.4e+08 l M-1; in experiment [4], 1.4e+06 l M-1; in experiment [5] it was 42000 l M-1; in experiment [7], 290000 l M-1.
Consider `NC(N)=NCCCNC(=O)[C@@H]1CCCN1C(=O)[C@H](N)Cc1ccccc1`, for which the Ratio was 341 in experiment [1], above 5600 in experiment [6], 100 in experiment [8] and 5600 in [9]. For the same compound, the K ass in experiment [2] was 14000 l M-1; in [3], 1.4e+06 l M-1; in experiment [11], < 250 l M-1; in experiment [12], < 250 l M-1; in experiment [7] it was 4100 l M-1.
Consider `NC(N)=NCCCCCCNC(=O)[C@@H]1CCCN1C(=O)[C@H](N)Cc1ccccc1`, for which the K ass in experiment [2] was 600 l M-1; in [3], 24000 l M-1; in experiment [11], < 250 l M-1; in experiment [13], < 250 l M-1; in experiment [12] it was < 250 l M-1.
In the case of `CN[C@H](Cc1ccccc1)C(=O)N1CCC[C@H]1C(=O)NCCCCN=C(N)N`, the Ratio was determined as 2100 in [1], 2100 in experiment [6], 10 in experiment [8] and 13000 in experiment [9]. Also, the K ass in experiment [2] is 240000 l M-1; in [3], 2.4e+06 l M-1; in experiment [4], 1100 l M-1; in [5], 180 l M-1; in experiment [7], 1100 l M-1.
